Reference: patent US5063203A, “Method of preventing or treating thrombosis using kappa-caseinoglycopeptide as active ingredient” (Centre National de la Recherche Scientifique (CNRS), priority 1989, dated 1991)
pIC50: −log10 of the molar value. Values joined by “and” are separate entries in the source; they are usually repeats but may differ in a detail not shown here. Equal values may be shown once. “Also recorded” adds a separate entry of the source.

Key:
blood-platelets [1] = details: literature, fragments of cow's CGP; cited from earlier work
blood-platelets [2] = details: literature, fragments of cow's CGP; same concentrations as the undecapeptide; cited from earlier work
human blood-platelets [3] = assay: aggregation of human blood-platelets caused by ADP; format: cell-based; set-up: key to Aggregation with ADP, concentration which induces 50% inhibition: --: No inhibition
Text: (§1) More precisely, its activity upon the blood-platelet functions has been studied in vitro in relation to the inhibition of the aggregation of blood-platelets caused by ADP ("aggregation with ADP"), in relation to the inhibition of the attachment of fibrinogen to the blood-platelets caused by ADP ("attachment of fibrinogen with ADP"), in relation to the inhibition of the aggregation of blood-platelets caused by thrombin ("aggregation with thrombin") and in relation to the inhibition of the reaction caused by thrombin ("secretion reaction with thrombin") that is to say the release of one of the constituents of the dense granule (serotonin), evidence of blood-platelet activation.
(§2) These three products (κ-casein, κ-paracasein and CGP) have been tested upon the aggregation of human blood-platelets by ADP and by thrombin, upon the fixing of fibrinogen in the presence of ADP, and on the secretion reaction.

human blood-platelets [4] = assay: aggregation of human blood-platelets caused by thrombin; format: cell-based
Text: as §1, §2

human blood-platelets [5] = assay: attachment of fibrinogen to the blood-platelets caused by ADP; format: cell-based; details: CGP at 250 μM
Text: as §1, §2

human blood-platelets [6] = assay: secretion reaction with thrombin (release of serotonin from the dense granule); format: cell-based
Text: as §1, §2

Row | Substance | inhibition of blood-platelet aggregation in vitro (blood-platelets [1]) | inhibition of the attachment of fibrinogen to the blood-platelets in vitro (blood-platelets [2]) | CI50, aggregation with ADP (human blood-platelets [3]) | Aggregation with ADP, concentration which induces 50% inhibition (human blood-platelets [3]; Table II) | pIC50 (human blood-platelets [4]; Table II, read-out: Aggregation with thrombin, concentration which induces 50% inhibition) | pIC50 (human blood-platelets [4]; read-out: CI50, aggregation with thrombin) | inhibition of fibrinogen attachment with ADP (human blood-platelets [5]) | pIC50 (human blood-platelets [6]; Table II, read-out: Secretion reaction with thrombin, concentration which induces 50% inhibition) | pIC50 (human blood-platelets [6]; read-out: CI50, secretion reaction with thrombin)
1 | heptapeptide containing the residues 106→112: fragment 106→112 of cow's κ-caseinoglycopeptide, by trypsin digestion of CGP or by synthesis (MAIPPKK; UniProt P02668 127-133, looked up, fragment) | non-inhibiting | none of these peptides inhibit |  |  |  |  |  |  | 
2 | tetrapeptide containing the residues 113→116: fragment 113→116 of cow's κ-caseinoglycopeptide, by trypsin digestion of CGP or by synthesis (NQDK; UniProt P02668 134-137, looked up, fragment) | inhibits only very slightly | none of these peptides inhibit |  |  |  |  |  |  | 
3 | κ-casein: cow's milk protein that under chymosin yields κ-paracasein and CGP; comparator |  |  | inactive; also recorded: inhibits neither | -- | 5.00 | 5.00 and ~5.00 | inhibits neither | 5.00 | 5.00 and ~5.00
